Laboratory results from patent US20130197085A1, “AGENT AND METHOD FOR STABILIZING MEMBRANE PROTEIN” (priority 2007, published 2013).

Columns and labels:
[1] = molecular target: T1, BSEP on canalicular membrane (Rattus norvegicus, UniProt O70127); experiment: Transport assay using canalicular membrane vesicles (CMVs) from treated rats; format: in vivo, SD rat
T1 construct: from tissue; host or cells: liver of male SD rats: in vivo for A27, canalicular membrane vesicles for A28 and A29
T1 sequence (O70127 1-1321): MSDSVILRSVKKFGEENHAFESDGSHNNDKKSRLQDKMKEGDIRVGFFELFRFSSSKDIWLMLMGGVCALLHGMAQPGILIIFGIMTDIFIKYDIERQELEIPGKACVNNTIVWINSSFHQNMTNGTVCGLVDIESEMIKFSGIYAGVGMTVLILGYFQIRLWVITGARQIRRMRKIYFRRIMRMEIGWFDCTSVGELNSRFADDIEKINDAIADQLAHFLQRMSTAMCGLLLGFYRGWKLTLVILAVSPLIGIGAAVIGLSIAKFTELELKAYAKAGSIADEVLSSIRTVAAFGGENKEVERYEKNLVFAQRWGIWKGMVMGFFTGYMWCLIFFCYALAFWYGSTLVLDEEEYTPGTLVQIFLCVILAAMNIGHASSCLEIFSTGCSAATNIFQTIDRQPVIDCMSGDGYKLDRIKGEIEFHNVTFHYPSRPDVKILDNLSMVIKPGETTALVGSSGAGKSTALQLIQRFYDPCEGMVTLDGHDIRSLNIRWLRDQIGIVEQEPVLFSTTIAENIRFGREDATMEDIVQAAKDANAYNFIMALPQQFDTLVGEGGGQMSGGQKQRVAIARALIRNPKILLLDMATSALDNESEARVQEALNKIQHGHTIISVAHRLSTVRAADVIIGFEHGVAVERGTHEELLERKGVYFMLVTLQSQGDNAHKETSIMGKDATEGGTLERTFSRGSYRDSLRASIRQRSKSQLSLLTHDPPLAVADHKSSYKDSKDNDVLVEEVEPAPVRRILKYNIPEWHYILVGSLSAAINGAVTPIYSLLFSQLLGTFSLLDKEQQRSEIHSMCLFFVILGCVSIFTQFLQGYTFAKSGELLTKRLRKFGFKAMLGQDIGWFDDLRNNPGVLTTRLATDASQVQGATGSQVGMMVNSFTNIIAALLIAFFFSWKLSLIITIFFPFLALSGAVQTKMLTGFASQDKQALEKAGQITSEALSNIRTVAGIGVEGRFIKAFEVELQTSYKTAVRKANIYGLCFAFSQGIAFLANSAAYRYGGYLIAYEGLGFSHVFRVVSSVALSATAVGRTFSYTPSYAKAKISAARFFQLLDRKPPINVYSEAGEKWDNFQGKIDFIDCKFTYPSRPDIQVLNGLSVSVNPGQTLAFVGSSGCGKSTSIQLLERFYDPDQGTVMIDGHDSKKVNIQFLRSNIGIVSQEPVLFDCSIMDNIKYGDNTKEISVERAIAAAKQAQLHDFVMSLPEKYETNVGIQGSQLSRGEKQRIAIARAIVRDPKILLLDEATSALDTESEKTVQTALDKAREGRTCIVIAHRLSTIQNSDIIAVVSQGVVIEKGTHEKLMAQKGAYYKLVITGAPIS
Description: (§1) […] 4PBA or a vehicle was given to a male SD rat (6- to 7-week-old) for 10 days, divided over 3 administrations. Canalicular membrane vesicles were prepared from the liver of the rat (Akita et al., Biochim Biophys Acta, 1511: 7-16, 2001), and they were then used in Western blotting and a transport assay. Such transport assay was carried out by a rapid filtration method (Hayashi et al., Biochim Biophys Acta, 1738: 54-62, 2005).

BSEP = molecular target: T2, BSEP (Rattus norvegicus, UniProt O70127); experiment: Western blotting of canalicular membrane vesicles (CMVs) from treated rats; format: in vivo, SD rat; conditions: CMVs from SD rats treated at 0.6 g/kg/day for 10 days
T2 construct: from tissue; host or cells: liver of male SD rats: in vivo for A27, canalicular membrane vesicles for A28 and A29
T2 sequence (O70127 1-1321): T1 sequence (O70127 1-1321)
Description: as §1

DPPIV = experiment: as above; format: in vivo, SD rat; conditions: CMVs from SD rats treated at 0.6 g/kg/day for 10 days
Description: as §1

P-gp = experiment: as above; format: in vivo, SD rat; conditions: CMVs from SD rats treated at 0.6 g/kg/day for 10 days
Description: as §1

wild-type BSEP = molecular target: T3, wild-type BSEP (Homo sapiens, UniProt O95342, L339V); experiment: Cell surface biotinylation method, expression on the surface of MDCKII cells; format: cell-based; conditions: 1 mM, 24 hours
T3 construct: expressed in transfected cells; host or cells: MDCKII cells infected with recombinant adenovirus
Description: (§2) MDCKII cells were dispersed on a 6-well plate, resulting in a density of 2.5×10^5 cells/well. After completion of the culture for 24 hours, the confluent cells were infected with recombinant adenoviruses having the cDNAs of wild-type, E297G and D482G BSEPs, and GFP, at 200 MOI. After completion of the infection, the cells were cultured for 24 hours. […] After completion of the treatment for 24 hours, the cells were biotinylated (see Hayashi et al., Hepatology, 41: 916-924, 2005).

E297G BSEP = molecular target: T4, E297G BSEP (Homo sapiens, UniProt O95342, E297G/L339V); experiment: as above; format: cell-based; conditions: 1 mM, 24 hours
T4 construct: expressed in transfected cells; host or cells: MDCKII cells infected with recombinant adenovirus
Description: as §2

[2] = tested on: intrinsic dipeptidyl peptidase IV (DPPIV); experiment: as above; format: cell-based; conditions: 1 mM, 24 hours
Description: as §2

D482G BSEP = molecular target: T5, D482G BSEP (Homo sapiens, UniProt O95342, D482G/L339V); experiment: as above; format: cell-based; conditions: 1 mM, 24 hours
T5 construct: expressed in transfected cells; host or cells: MDCKII cells infected with recombinant adenovirus
Description: as §2

extrinsic P-gp = experiment: as above; format: cell-based; conditions: 1 mM, 24 hours

T5 sequence (O95342 whole entry L339V/D482G): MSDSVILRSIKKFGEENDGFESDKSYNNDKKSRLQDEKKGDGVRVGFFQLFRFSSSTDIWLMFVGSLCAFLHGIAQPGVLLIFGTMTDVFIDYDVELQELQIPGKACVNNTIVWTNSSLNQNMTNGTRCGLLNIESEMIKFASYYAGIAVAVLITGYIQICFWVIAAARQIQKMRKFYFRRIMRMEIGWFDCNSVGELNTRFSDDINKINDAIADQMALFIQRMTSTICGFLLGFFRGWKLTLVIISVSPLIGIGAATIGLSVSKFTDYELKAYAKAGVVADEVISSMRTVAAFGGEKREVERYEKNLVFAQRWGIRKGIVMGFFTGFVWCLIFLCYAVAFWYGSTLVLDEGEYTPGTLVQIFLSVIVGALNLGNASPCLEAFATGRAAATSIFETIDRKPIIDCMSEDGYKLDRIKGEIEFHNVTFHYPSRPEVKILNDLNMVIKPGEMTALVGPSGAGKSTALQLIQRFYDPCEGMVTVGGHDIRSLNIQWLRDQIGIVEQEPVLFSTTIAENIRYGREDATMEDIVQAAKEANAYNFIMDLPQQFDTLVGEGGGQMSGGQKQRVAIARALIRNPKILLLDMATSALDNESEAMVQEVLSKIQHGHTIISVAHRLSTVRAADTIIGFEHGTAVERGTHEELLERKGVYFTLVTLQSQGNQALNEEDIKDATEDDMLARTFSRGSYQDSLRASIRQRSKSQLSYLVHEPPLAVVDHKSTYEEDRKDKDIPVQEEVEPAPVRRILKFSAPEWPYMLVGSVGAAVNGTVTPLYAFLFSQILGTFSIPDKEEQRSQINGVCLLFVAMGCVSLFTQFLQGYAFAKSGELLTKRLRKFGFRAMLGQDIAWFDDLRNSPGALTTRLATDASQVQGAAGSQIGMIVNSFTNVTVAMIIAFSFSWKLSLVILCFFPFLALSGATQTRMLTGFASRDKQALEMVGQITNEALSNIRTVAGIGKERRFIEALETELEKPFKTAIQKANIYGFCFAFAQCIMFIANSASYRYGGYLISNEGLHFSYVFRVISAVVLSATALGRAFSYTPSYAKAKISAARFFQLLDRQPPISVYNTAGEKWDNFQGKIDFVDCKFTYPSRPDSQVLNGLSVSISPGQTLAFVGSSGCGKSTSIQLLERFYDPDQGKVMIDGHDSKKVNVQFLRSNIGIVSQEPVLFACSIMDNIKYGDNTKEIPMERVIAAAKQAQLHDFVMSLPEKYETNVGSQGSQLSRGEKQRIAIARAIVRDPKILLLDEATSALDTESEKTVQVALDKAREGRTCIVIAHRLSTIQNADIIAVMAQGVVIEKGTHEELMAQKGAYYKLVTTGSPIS
T4 sequence (O95342 whole entry E297G/L339V): as the sequence (O95342 whole entry L339V/D482G) above, with E297G, G482D counted along it
T3 sequence (O95342 whole entry L339V): as the sequence (O95342 whole entry L339V/D482G) above, with G482D counted along it

O=C(O)CCCc1ccccc1 [4PBA, 4-phenylbutyric acid]
ATP-dependent uptake of [^3H] TC by CMVs, higher than CMVs from vehicle-treated rats ([1]; CMVs from SD rats treated at 0.6 g/kg/day for 10 days): 3 times
Vmax value of [^3H] TC uptake by CMVs ([1]; CMVs from SD rats treated with 4PBA at 0.6 g/kg/day for 10 days): 1,000±110
expression level of BSEP in CMVs, increase (BSEP): 3.2 times
expression level of DPPIV in CMVs (DPPIV): not changed
expression level of P-gp in CMVs (P-gp): not changed
expression level on the cell surface, increase (wild-type BSEP): 1.8 times
expression level on the cell surface, increase (E297G BSEP): 3.1 times
expression of intrinsic DPPIV [2]: not influenced
expression level on the cell surface, increase (D482G BSEP): 2.6 times
expression of extrinsic P-gp (extrinsic P-gp): not influenced
